Here are results for 2 compounds from US11696537B2, “Composition and method for increasing the content of glucosinolates in adult plants of the genus brassica” (CONSEJO SUPERIOR DE INVESTIGACIONES CIENTÍFICAS (CSIC), priority 2018, dated 2023).

Series [1] can be described thus: Drop dispersion. Conditions: under binoculars (1.6×), FIG. 3. It is filed as physicochemical. The method, then: The drop dispersion of Compositions 1 and 2 and that of elicitor Composition (MeJA) was determined under binoculars (1.6×) (FIG. 3).
Series [2] relates to Brassica oleracea var. Italica Parthenon. The conditions noted are these: in vivo. On the procedure:
(§1) In a growth chamber, seeds of the broccoli cultivar (Brassica oleracea var. Italica) Parthenon which grew for 30 days were germinated. Subsequently, they were allowed to grow in a greenhouse for 75 days until the inflorescences reached commercial size. In this case, foliar application of the treatments indicated below was carried out by spraying between 100 and 150 ml per plant: one at the time the flower bud appears and the following applications 5 and 10 days, respectively, after the first application.

Series [3] shares this test system. Nature of the series: Greenhouse test: concentration of glucosinolates on leaves and inflorescences after foliar application. It is filed as in vivo. The method, then:
as §1
Control composition: consisting of a solution containing 0.2% by volume of ethanol and 99.8% by volume of water.
Surfactant composition 1 (Triton X-100): consisting of a solution containing 0.1% by volume of Triton X-100 surfactant and 99.9% by volume of water.
Surfactant composition 2 (MPP): consisting of a solution containing 0.1% by volume of the modified polysiloxane polyether surfactant and 99.9% by volume of water.
Elicitor composition (MeJA): consisting of a solution containing 0.0022% by volume of MeJA, 0.2% by volume of ethanol and 99.7978% by volume of water.
Composition 2 (MeJA+Triton X-100): consisting of a solution containing 0.0022% by volume of MeJA, 0.2% by volume of ethanol, 0.1% by volume of Triton X-100 and 99.70% by volume of water.
Composition 1 (MeJA+MPP): A solution was prepared containing 0.0022% by volume of MeJA (for a final concentration of 100 micromolar in the composition), 0.2% by volume of ethanol, 0.1% by volume of polysiloxane polyether and 99.7968% by volume of water.
Subsequently, the plants were harvested and the leaves and inflorescences were frozen in liquid nitrogen and immediately lyophilised to prevent the compounds of interest from degrading until it was time to determine the glucosinolates and metabolites of interest.
The analyses were carried out on the leaf and inflorescence at the time of collecting the commercial size. The method used for extracting glucosinolates was based on the method developed by the research group and currently in the public domain: Dominguez-Perles et al. (2010) Journal of Food Science 75, 383-392. The quantitative analysis was carried out by HPLC-DAD. The lyophilised and ground samples (100 mg) were extracted with 1 ml of 70% MeOH in a hot bath at 70° C. for 30 minutes, stirring every 5 minutes in a vortex, to optimise the extraction. The reaction was then stopped in an ice bath and the samples were centrifuged to precipitate the insoluble material, for 15 minutes, at 10,000 g and at 4° C. The supernatant was collected and the methanol was removed on a rotary evaporator with a thermostatically controlled bath at 38° C. The dry residue obtained was redissolved in ultra-pure water and filtered (00.22 μm of PVDF) for the subsequent analysis thereof.
Each sample (20 μl) was analysed in high-performance liquid chromatography (HPLC) equipped with a pump for binary eluent partitioning, an inline degasser, a photodiode detector autosampler (DAD). The compounds were separated in a C18 column measuring 250×4 mm and with a 0.4 um pore diameter, in reversed phase liquid chromatography (RP-HPLC) mode. The glucosinolates were identified using the methodology already described by the research group and publicly available for multipurpose analysis of intact glucosinolates (Martinez-Sánchez et al. 2006 Postharvest Biol. Technol. 42, 86-97; Dominguez-Perles et al. (2010) Journal of Food Sci. 75, 383-392), based on the retention times of the respective analytical peaks, the maximum absorption spectra thereof in the UV-Vis range and the comparison with commercially available external standards, sinigrin for aliphatic glucosinolates and glucobrassicin for indolic glucosinolates (Baenas et al. (2012) J. Agric. Food Chemistry, 60, 11409-11420). The detection was carried out at 227 nm and the concentration of glucosinolates was expressed in μmol/g of plant tissue dry weight. […]

Regarding `CC/C=C\CC1C(=O)CCC1CC(=O)OC` (centres unmarked) [MeJA, methyl jasmonate], the drop dispersion result in series [1] was “no dispersion is observed”. In addition, the “% of Commercial heads” value in series [2] is recorded as 100%. Moreover, in series [3] (INFLORESCENCE), the “Total GLS” value is recorded as 4.97 mg/g DW, the “mg GBS/g DW” value is 2.05 mg/g DW, the “mg GRA/g DW” value was found to be 1.70 mg/g DW and the “mg NGB/g DW” value was determined as 1.22 mg/g DW. Also, in series [3] (LEAF), the “Total GLS” value worked out at 1.75 mg/g DW, the “mg GBS/g DW” value came out at 0.71 mg/g DW, the “mg GRA/g DW” value is reported as 0.35 mg/g DW and the “mg NGB/g DW” value amounted to 0.69 mg/g DW.

With Triton X-100, the “% of Commercial heads” value in series [2] is listed as 81.1%.
